Measurements from ChEMBL document CHEMBL1201862, “PubChem BioAssay data set” (2004).
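Cells were grown in 96-well plates and exposed to each compound for 48 hours at five concentrations; endpoints were interpolated linearly between bracketing concentrations, or set to the highest concentration if not reached. The concentration for 50% growth inhibition is given as GI50.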 The source made the active and inactive calls. No stated cut-off is given here; in the data, active = GI50 up to about 1.1 µM and inactive = higher.

Legend:
Experiment in all cases: DTP human tumour cell line panel, 48 h
A498 = tested on: A498
ACHN = tested on: ACHN
HCC 2998 = tested on: HCC 2998
KM12 = tested on: KM12
M14 = tested on: M14
MDA-MB-435 = tested on: MDA-MB-435
MOLT-4 = tested on: MOLT-4
OVCAR-4 = tested on: OVCAR-4
OVCAR-5 = tested on: OVCAR-5
RXF 393 = tested on: RXF 393
SK-MEL-2 = tested on: SK-MEL-2
SK-OV-3 = tested on: SK-OV-3
SN12C = tested on: SN12C
U-251 = tested on: U-251
UO-31 = tested on: UO-31
CCRF-CEM = tested on: CCRF-CEM
OVCAR-8 = tested on: OVCAR-8
SR = tested on: SR
Hs-578T = tested on: Hs-578T

Measured: GI50

Nn1c(CCCCCCCCc2nnc(COc3c(O)ccc4ccccc34)n2N)nnc1COc1c(O)ccc2ccccc12
inactive: A498 > 100 µM | ACHN > 100 µM | HCC 2998 > 100 µM | KM12 > 100 µM | M14 > 100 µM | MDA-MB-435 > 100 µM | MOLT-4 > 100 µM | OVCAR-4 59.6 µM | OVCAR-5 > 100 µM | RXF 393 84.3 µM | SK-MEL-2 > 100 µM | SK-OV-3 > 100 µM | SN12C > 100 µM | U-251 > 100 µM | UO-31 > 100 µM

O=C1/C(=C/c2ccco2)N=C(c2ccccc2)N1c1ccc(S(=O)(=O)Nc2nccs2)cc1
inactive: ACHN 74.6 µM | CCRF-CEM 75.7 µM | HCC 2998 > 100 µM | KM12 > 100 µM | M14 > 100 µM | MDA-MB-435 > 100 µM | MOLT-4 43.4 µM | OVCAR-4 69.2 µM | OVCAR-5 > 100 µM | OVCAR-8 65.5 µM | RXF 393 69.5 µM | SK-MEL-2 > 100 µM | SK-OV-3 > 100 µM | SN12C > 100 µM | SR > 100 µM | U-251 71.9 µM | UO-31 57.1 µM

COc1ccc(/N=C/N(C)C)c(C)c1
inactive: A498 18.1 µM | ACHN 18.7 µM | CCRF-CEM 3.28 µM | Hs-578T 1.52 µM | M14 13.6 µM | MDA-MB-435 6.08 µM | MOLT-4 2.6 µM | OVCAR-4 9.42 µM | OVCAR-5 20.5 µM | OVCAR-8 7.13 µM | RXF 393 10.6 µM | SK-MEL-2 5.15 µM | SK-OV-3 18.7 µM | SN12C 14.2 µM | U-251 4.28 µM | UO-31 26.1 µM

CCOC(=O)C(CCSC)(CCSC)C(=O)OCC
inactive: A498 > 100 µM | ACHN > 100 µM | CCRF-CEM > 100 µM | HCC 2998 > 100 µM | Hs-578T > 100 µM | KM12 > 100 µM | M14 > 100 µM | MDA-MB-435 > 100 µM | MOLT-4 > 100 µM | OVCAR-4 > 100 µM | OVCAR-5 > 100 µM | OVCAR-8 > 100 µM | RXF 393 > 100 µM | SK-MEL-2 > 100 µM | SK-OV-3 27.7 µM | SN12C > 100 µM | U-251 > 100 µM | UO-31 > 100 µM

Clc1ccc2nc3[nH]nc(Cl)c3nc2c1
inactive: A498 46.2 µM | ACHN 52.8 µM | HCC 2998 38.4 µM | Hs-578T 22.7 µM | KM12 59.3 µM | M14 70.3 µM | MDA-MB-435 77.8 µM | MOLT-4 30.5 µM | OVCAR-4 63.2 µM | OVCAR-5 48.1 µM | OVCAR-8 71.3 µM | RXF 393 35 µM | SK-MEL-2 40.6 µM | SK-OV-3 41.9 µM | SN12C 38.5 µM | U-251 60.7 µM | UO-31 22.8 µM

CC(=O)NC1C(OCC(=O)NCCNc2ccc([N+](=O)[O-])c3[nH]c4ccccc4c(=O)c23)C(O)C(CO)OC1(C)OCc1ccccc1 (stereo not given)
inactive: A498 > 100 µM | ACHN > 100 µM | CCRF-CEM > 100 µM | HCC 2998 > 100 µM | Hs-578T > 100 µM | KM12 > 100 µM | M14 > 100 µM | MDA-MB-435 > 100 µM | MOLT-4 > 100 µM | OVCAR-4 > 100 µM | OVCAR-5 > 100 µM | OVCAR-8 > 100 µM | RXF 393 > 100 µM | SK-MEL-2 > 100 µM | SK-OV-3 > 100 µM | SN12C > 100 µM | U-251 > 100 µM | UO-31 > 100 µM

O=[N+]([O-])c1ccc2c(c1)c(OCc1ccccc1)nn2Cc1ccccc1
inactive: A498 33 µM | ACHN 43.8 µM | CCRF-CEM 40.1 µM | HCC 2998 58.9 µM | Hs-578T 52.8 µM | KM12 > 100 µM | M14 > 100 µM | MDA-MB-435 > 100 µM | MOLT-4 57 µM | OVCAR-5 > 100 µM | OVCAR-8 > 100 µM | RXF 393 34.2 µM | SK-MEL-2 > 100 µM | SK-OV-3 > 100 µM | SN12C > 100 µM | UO-31 > 100 µM

CCCCSC1=N/C(=C\c2ccco2)C(=O)N1
inactive: A498 24.2 µM | ACHN > 100 µM | CCRF-CEM 24.2 µM | HCC 2998 30 µM | Hs-578T 29.9 µM | KM12 37.6 µM | M14 53.8 µM | MDA-MB-435 36.7 µM | MOLT-4 36.1 µM | OVCAR-4 60.1 µM | OVCAR-5 > 100 µM | OVCAR-8 44.1 µM | RXF 393 12.1 µM | SK-MEL-2 54.8 µM | SK-OV-3 > 100 µM | SN12C 99.1 µM | U-251 74.6 µM | UO-31 54 µM
